According to patent US8569279B2, “Method for modulating claudin mediated functions” (Sucampo AG, priority 2008, dated 2013):

Assays:
[1] = system: epithelial tight junction, mouse intestine (jejunum mucosa); experiment: Tissue conductance and dilution potentials in normal mouse intestines after Compound A in drinking water; type: in vivo; details: male C57BL/6 mice, 10 μM in drinking water for 7 to 14 days, jejunum mucosa in chamber, FIG. 1
Protocol: (Method) Male C57BL/6 mice (7-8 weeks old) were administered with 10 μM Compound A in the drinking water and fed standard diet for 7 to 14 days. During the period, the mice could drink the water freely. At the conclusion of this period, the mice were sacrificed and the intestines were removed. Approximately 5 cm sections were cut from tip of the jejunum. The intestine section was opened from ventral side, and then it was washed several Limes with Ringer solution. The mucosa of the intestine was carefully stripped from the serosa using forceps. The mucosa was mounted in a standard chamber (5 mm in diameter of exposed surface area) and bathed with buffer solution. Transepithelial short-circuit current (Isc) was measured and total tissue conductance was determined by measuring the current deflections resulting from a 1 mV/min transepithelial pulse and applying Ohm's law. When stable measurement of Isc was achieved, the buffer solution was replaced with potassium-free solution. The solution in the luminal bath were then replaced with the solution containing […], 150 mM LiCl, 150 mM KCl, 75 mM MgCl2 and 75 mM CaCl2, in turn, and dilution potentials in each solution were measured.

[2] = system: claudin-15 protein; experiment: Expression of claudin proteins in mouse intestine (immunofluorescence staining); type: in vivo; details: 10 μM in drinking water for 7 to 14 days, immunofluorescence staining of frozen slices, FIG. 2
Protocol: (Method) Treatment of mice and removal of intestine were conducted by similar way mentioned above. The removed intestine was frozen in liquid nitrogen and frozen slices were prepared. Expressions and intracellular distribution of claudin-15 protein were determined with immunofluorescence staining. […] (Conclusion) Continuous administration of Compound A caused expression changes of tight junction proteins, such as the decrease of claudin-15 which induces changes of electrophysiological property of the tight junction. Decrease of the expression of claudin-15 in the tight junction resulted to enhance the tightness of the tight junction and strengthen the epithelial sheet against toxic substances.

[3] = system: skin ulcer and/or bedsore animal model, db/db mice; experiment: Skin ulcer healing in genetically-diabetic mice (db/db mice); type: in vivo, mouse; details: topical twice a day for 12 days; for Ulcer area, %: Day 13 relative to Day 1, mean ± standard error, control 70.0 ± 5.7
Text: Female BKS.Cg−+Lepr^db/+Lepr^db/Jcl mice (db/db mice, SPF; CLEA Japan, Inc.), genetically-diabetic mice, were used for the present study. After the removal of the dorsal hair, the skin covering an area of 1.5×1.5 cm centered on the dorsal median was excised using ophthalmic scissors under anesthesia to make a skin ulcer and/or bedsore animal model. Then the excised skin area (ulcer area) was covered with porous film dressing measuring 4×4 cm. The dosing preparation was applied to the ulcer area at a dosage volume of 0.1 mL per site. The application was performed twice a day for 12 days from the day of preparation of the ulcers. Compound B: (−)-7-{(2R,4aR,5R,7aR)-2-[(3S)-1,1-difluoro-3-methylpentyl]-2-hydroxy-6-oxooctahydrocyclopenta[b]pyran-5-yl}heptanoic acid at 10 or 30 micro-g/site was applied to the ulcer per time. The same volume of the vehicle (physiological saline solution containing 1% polysorbate 80: 1% PS80) was applied to the animals in the control group. The day of the start of the application was defined as Day 1. On the Day 1 and Day 13, the frontal edge of the epidermis or the regeneration epidermis of each ulcer was traced on a plastic sheet. The traced ulcer area was measured with an area-line meter. The ulcer area (%) on Day 13 was calculated on the basis of the ulcer area on Day 1. Group mean values with standard errors were calculated for ulcer area (%).

| Compound | dilution potential of univalent cations compared to no-treatment group [1] | total tissue conductance compared to no-treatment group [1] | expression of claudin-15 protein [2] | ulcer healing as compared to the control group ([3]; 10 and 30 micro-g/site) | Ulcer area, % ([3]; 10 micro-g/site) [%] | Ulcer area, % ([3]; 30 micro-g/site) [%] |
| --- | --- | --- | --- | --- | --- | --- |
| CCCCC(F)(F)[C@@]1(O)CC[C@H]2[C@@H](CC(=O)[C@@H]2CCCCCCC(=O)O)O1 [Compound A, (−)-7-[(2R,4aR,5R,7aR)-2-(1,1-Difluoropentyl)-2-hydroxy-6-oxooctahydrocyclopenta[b]pyran-5-yl]heptanoic acid] | decrease | decrease | decreased |  |  |  |
| CC[C@H](C)CC(F)(F)[C@@]1(O)CC[C@H]2[C@@H](CC(=O)[C@@H]2CCCCCCC(=O)O)O1 [Compound B, (−)-7-{(2R,4aR,5R,7aR)-2-[(3S)-1,1-difluoro-3-methylpentyl]-2-hydroxy-6-oxooctahydrocyclopenta[b]pyran-5-yl}heptanoic acid] |  |  |  | significantly accelerated the ulcer healing | 43.1 ± 4.2 | 41.1 ± 3.1 |
